Measurements taken from patent US5237060A, “Process of preparing enantiomerically pure 1,8-bridged 4-quinolone-3-carboxylic acids” (Bayer Aktiengesellschaft, priority 1985, dated 1993).
≈ marks a conversion by molar mass, not a printed value. Where two headings read alike, the source gives them in different places.

Key:
Experiment in all cases: MIC, agar dilution test (isosensitest medium)
Format in all cases: cell-based
E. coli 4418 = details: Escherichia coli
Source text: (§1) Agar dilution test (isosensitest medium); Denley multipoint inoculator

E. coli A 261 = details: Escherichia coli, A261
Source text: as §1

E. coli T 7 = details: Escherichia coli, T7
Source text: as §1

Klebsiella 57 USA = tested on: Klebsiella 57 USA
Source text: as §1

Klebsiella 6318 = tested on: Klebsiella 6318
Source text: as §1

Klebsiella 63 = tested on: Klebsiella 63
Source text: as §1

Proteus 1875 = tested on: Proteus 1875
Source text: as §1

Proteus Vulg. 1017 = tested on: Proteus Vulg. 1017
Source text: as §1

Providencia 12012 = tested on: Providencia 12012
Source text: as §1

Pseudomonas Ellsworth = tested on: Pseudomonas Ellsworth
Source text: as §1

Pseudomonas Walter = tested on: Pseudomonas Walter
Source text: as §1

Staph. 133 = tested on: Staph. 133
Source text: as §1

Staph. 1756 = tested on: Staph. 1756
Source text: as §1

Staph. F 422 = tested on: Staph. F 422
Source text: as §1

Strepto 9790 = tested on: Strepto 9790
Source text: as §1

[1] = E. coli 4418, agar dilution, read-out: MIC
[2] = Klebsiella 57 USA, agar dilution, read-out: MIC
[3] = Klebsiella 6318, agar dilution, read-out: MIC
[4] = Klebsiella 63, agar dilution, read-out: MIC
[5] = Proteus 1875, agar dilution, read-out: MIC
[6] = Proteus Vulg. 1017, agar dilution, read-out: MIC

| Compound | MIC (E. coli 4418; [1]) [µg/mL] | MIC (E. coli A 261) [µg/mL] | MIC (E. coli T 7) [µg/mL] | MIC (Klebsiella 57 USA; [2]) [µg/mL] | MIC (Klebsiella 6318; [3]) [µg/mL] | MIC (Providencia 12012) [µg/mL] | MIC (Pseudomonas Ellsworth) [µg/mL] | MIC (Pseudomonas Walter) [µg/mL] | MIC (Staph. 133) [µg/mL] | MIC (Staph. 1756) [µg/mL] | MIC (Staph. F 422) [µg/mL] | MIC (Strepto 9790) [µg/mL] | MIC (Klebsiella 63; [4]) [µg/mL] | MIC (Proteus 1875; [5]) [µg/mL] | MIC (Proteus Vulg. 1017; [6]) [µg/mL] | other results |
| --- | --- | --- | --- | --- | --- | --- | --- | --- | --- | --- | --- | --- | --- | --- | --- | --- |
| CC1COc2c(N3CCN(C)CC3)c(F)cc3c(=O)c(C(=O)O)cn1c23 (racemic) [Ofloxacin, reference compound] | 0.25 (≈ 0.692 µM) | 0.03 (≈ 0.083 µM) | 0.06 (≈ 0.166 µM) | 0.25 (≈ 0.692 µM) | 0.25 (≈ 0.692 µM) | 0.25 (≈ 0.692 µM) | 0.5 (≈ 1.38 µM) | 2 (≈ 5.53 µM) | 0.5 (≈ 1.38 µM) | 0.5 (≈ 1.38 µM) | 0.5 (≈ 1.38 µM) | 2 (≈ 5.53 µM) |  |  |  | MIC (Klebsiella 63; Klebsiella, 63): 0.125 µg/mL (≈ 0.346 µM); MIC (Proteus 1875): 0.125 µg/mL (≈ 0.346 µM); MIC (Proteus Vulg. 1017): 0.125 µg/mL (≈ 0.346 µM) |
| C[C@H]1COc2c(N3CCN(C)CC3)c(F)cc3c(=O)c(C(=O)O)cn1c23 [Example 4, 3S-9-fluoro-3-methyl-10(4-methyl-1-piperazinyl)-7-oxo-7H-pyrido[1,2,3-de][1,4]-benzoxazine-6-carboxylic acid] |  | ≤ 0.015 | 0.03 (≈ 0.083 µM) |  |  | 0.06 (≈ 0.166 µM) | 0.25 (≈ 0.692 µM) | 1 (≈ 2.77 µM) | 0.25 (≈ 0.692 µM) | 0.25 (≈ 0.692 µM) | 0.25 (≈ 0.692 µM) | 1 (≈ 2.77 µM) | 0.06 (≈ 0.166 µM) | 0.06 (≈ 0.166 µM) | 0.06 (≈ 0.166 µM) | MIC (E. coli 4418; 4418): 0.125 µg/mL (≈ 0.346 µM); MIC (Klebsiella 57 USA; Klebsiella, 57USA): 0.125 µg/mL (≈ 0.346 µM); MIC (Klebsiella 6318; Klebsiella, 6318): 0.125 µg/mL (≈ 0.346 µM) |
| C[C@@H]1COc2c(N3CCN(C)CC3)c(F)cc3c(=O)c(C(=O)O)cn1c23 [Example 16, 3R-9-fluoro-3-methyl-10(4-methyl-1-piperazinyl)-7-oxo-7H-pyrido[1,2,3-de][1,4]-benzoxazine-6-carboxylic acid] | 2 (≈ 5.53 µM) | 0.25 (≈ 0.692 µM) | 1 (≈ 2.77 µM) | 4 (≈ 11.1 µM) | 4 (≈ 11.1 µM) | 4 (≈ 11.1 µM) | 4 (≈ 11.1 µM) | 32 (≈ 88.6 µM) | 8 (≈ 22.1 µM) | 8 (≈ 22.1 µM) | 16 (≈ 44.3 µM) | 32 (≈ 88.6 µM) | 2 (≈ 5.53 µM) | 4 (≈ 11.1 µM) | 2 (≈ 5.53 µM) |  |
